Source: PMC10766639, “Synthesis, in vitro potency of inhibition, enzyme kinetics and in silico studies of quinoline-based α-glucosidase inhibitors” (Scientific Reports, 2024)
Read-outs that look alike come from different tables or passages of the source.

Columns and labels:
[1] = Concentrations of precipitation; assay type: physicochemical
From the text: Table 1 α-Glucosidase inhibitory activity of compounds 8a–t. | column: Concentrations of precipitation (µM)

[2] = biological target: Saccharomyces cerevisiae α-glucosidase enzyme (EC. 3. 2. 1. 20) (Saccharomyces cerevisiae, UniProt P38158); test: In vitro α-glucosidase inhibitory activity; assay type: biochemical
From the text: In order to conduct the enzyme assay, the Saccharomyces cerevisiae α-glucosidase enzyme (EC. 3. 2. 1. 20) have been used.

α-glucosidase [3] = biological target: α-glucosidase; set-up: method as in PMID 36782003, PMID 35982225, PMID 36928433, PMID 37188744, doi:10.1039/C5MD00280J; conditions: cited from earlier work
α-glucosidase [4] = biological target: α-glucosidase (Saccharomyces cerevisiae, UniProt P38158); test: Enzyme kinetic study (Lineweaver–Burk plot); assay type: biochemical
From the text: A Lineweaver–Burk plot was generated to recognize the type of inhibition and the Michaelis–Menten constant (Km) value was defined from the plot between the reciprocal of the substrate concentration (1/[S]) and reciprocal of enzyme rate (1/V) over different concentrations of inhibitor.

Saccharomyces cerevisiae α-glucosidase enzyme (EC. 3. 2. 1. 20), sequence (P38158 whole entry): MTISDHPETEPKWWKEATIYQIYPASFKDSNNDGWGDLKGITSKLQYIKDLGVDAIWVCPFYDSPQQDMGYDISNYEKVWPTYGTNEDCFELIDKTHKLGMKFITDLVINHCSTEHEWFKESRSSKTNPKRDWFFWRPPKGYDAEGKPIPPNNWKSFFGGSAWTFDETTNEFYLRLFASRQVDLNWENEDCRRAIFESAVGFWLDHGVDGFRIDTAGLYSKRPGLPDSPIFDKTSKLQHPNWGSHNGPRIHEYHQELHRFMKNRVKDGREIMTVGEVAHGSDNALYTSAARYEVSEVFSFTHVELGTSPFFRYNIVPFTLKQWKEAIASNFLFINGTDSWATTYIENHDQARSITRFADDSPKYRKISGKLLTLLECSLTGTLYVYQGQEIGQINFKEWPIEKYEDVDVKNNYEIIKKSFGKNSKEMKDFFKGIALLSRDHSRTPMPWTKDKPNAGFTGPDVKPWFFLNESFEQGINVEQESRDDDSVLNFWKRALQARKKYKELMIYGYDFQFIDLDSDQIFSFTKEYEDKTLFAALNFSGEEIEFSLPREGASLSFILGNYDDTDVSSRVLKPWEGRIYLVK
α-glucosidase (Saccharomyces cerevisiae, UniProt P38158), sequence (P38158 whole entry): as above

| Molecule | Concentrations of precipitation [1] [µM] | IC50 [2] [µM] | melting point [°C] | further results |
| --- | --- | --- | --- | --- |
| 2-((3-(benzo[d]thiazol-2-yl)quinolin-2-yl)thio)-N-(4-methyl-2-nitrophenyl)acetamide [Compound 8n] | > 90 |  |  | IC50 ([2]; α-glucosidase, mean ± SD of three independent determinations of triplicate samples, read-out: IC50): 65.9 ± 1 µM |
| O=C(N/N=C/c1cc(O)c(O)cc1O)c1ccc(-c2nnc(-c3ccc4ncccc4c3)o2)cc1 [A] |  |  |  | IC50 (α-glucosidase [3]; Fig. 2, study of compound A with its acarbose standard): 2.6 ± 0.01 µM |
| O=C(CSc1nc2ccccc2cc1-c1nc2ccccc2[nH]1)Nc1cccc(Cl)c1 [C] |  |  |  | IC50 (α-glucosidase [3]; Fig. 2, study of compound C with its acarbose standard): 3.2 ± 0.3 µM |
| O=C(CSc1nc2ccccc2cc1-c1nc2ccccc2s1)Nc1ccccc1 [Compound 8a, 2-((3-(benzo[d]thiazol-2-yl)quinolin-2-yl)thio)-N-phenylacetamide] | > 90 | 299 ± 0.1 |  |  |
| Cc1ccccc1NC(=O)CSc1nc2ccccc2cc1-c1nc2ccccc2s1 [Compound 8b, 2-((3-(benzo[d]thiazol-2-yl)quinolin-2-yl)thio)-N-(o-tolyl)acetamide] | > 90 | 79.9 ± 1.2 | 211 to 213 | Potency compared to para-isomer (8c) ([2]; α-glucosidase, more potent than 8c): fivefold |
| Cc1ccc(NC(=O)CSc2nc3ccccc3cc2-c2nc3ccccc3s2)cc1 [Compound 8c, 2-((3-(benzo[d]thiazol-2-yl)quinolin-2-yl)thio)-N-(p-tolyl)acetamide] | > 90 | 384.3 ± 0.3 |  |  |
| CCc1ccc(NC(=O)CSc2nc3ccccc3cc2-c2nc3ccccc3s2)cc1 [Compound 8d, 2-((3-(benzo[d]thiazol-2-yl)quinolin-2-yl)thio)-N-(4-ethylphenyl)acetamide] | > 90 | 194.4 ± 0.8 |  |  |
| Cc1cccc(NC(=O)CSc2nc3ccccc3cc2-c2nc3ccccc3s2)c1C [Compound 8e, 2-((3-(benzo[d]thiazol-2-yl)quinolin-2-yl)thio)-N-(2,3-dimethylphenyl)acetamide] | > 90 | 130.4 ± 0.5 |  |  |
| Cc1cccc(C)c1NC(=O)CSc1nc2ccccc2cc1-c1nc2ccccc2s1 [Compound 8f, 2-((3-(benzo[d]thiazol-2-yl)quinolin-2-yl)thio)-N-(2,6-dimethylphenyl)acetamide] | > 90 | 231.6 ± 0.7 |  |  |
| O=C(CSc1nc2ccccc2cc1-c1nc2ccccc2s1)Nc1ccccc1F [Compound 8g, 2-((3-(benzo[d]thiazol-2-yl)quinolin-2-yl)thio)-N-(2-fluorophenyl)acetamide] | > 90 | 198.5 ± 0.9 | 201 to 203 |  |
| O=C(CSc1nc2ccccc2cc1-c1nc2ccccc2s1)Nc1ccc(F)cc1 [Compound 8h, 2-((3-(benzo[d]thiazol-2-yl)quinolin-2-yl)thio)-N-(4-fluorophenyl)acetamide] | > 90 | 38.2 ± 0.3 |  | Type of inhibition (α-glucosidase [4]; Lineweaver–Burk plot): non-competitive inhibition; Ki (α-glucosidase [4]; read-out: Ki (inhibition constant)): 38.2 µM |
| O=C(CSc1nc2ccccc2cc1-c1nc2ccccc2s1)Nc1ccccc1Cl [Compound 8i, 2-((3-(benzo[d]thiazol-2-yl)quinolin-2-yl)thio)-N-(2-chlorophenyl)acetamide] | > 90 | 118 ± 1.4 | 221 to 223 |  |
| O=C(CSc1nc2ccccc2cc1-c1nc2ccccc2s1)Nc1cccc(Cl)c1 [Compound 8j, 2-((3-(benzo[d]thiazol-2-yl)quinolin-2-yl)thio)-N-(3-chlorophenyl)acetamide] | > 90 | 111.7 ± 1.1 |  |  |
| O=C(CSc1nc2ccccc2cc1-c1nc2ccccc2s1)Nc1ccc(Cl)cc1 [Compound 8k, 2-((3-(benzo[d]thiazol-2-yl)quinolin-2-yl)thio)-N-(4-chlorophenyl)acetamide] | > 90 | 145 ± 1.5 |  |  |
| O=C(CSc1nc2ccccc2cc1-c1nc2ccccc2s1)Nc1ccc(Br)cc1 [Compound 8l, 2-((3-(benzo[d]thiazol-2-yl)quinolin-2-yl)thio)-N-(4-bromophenyl)acetamide] | > 90 | 182.7 ± 1 |  |  |
| O=C(CSc1nc2ccccc2cc1-c1nc2ccccc2s1)Nc1ccc([N+](=O)[O-])cc1 [Compound 8m, 2-((3-(benzo[d]thiazol-2-yl)quinolin-2-yl)thio)-N-(4-nitrophenyl)acetamide] | > 90 | 198.9 ± 1.5 | 209 to 211 |  |
| O=C(CSc1nc2ccccc2cc1-c1nc2ccccc2s1)Nc1ncc([N+](=O)[O-])s1 [Compound 8o, 2-((3-(benzo[d]thiazol-2-yl)quinolin-2-yl)thio)-N-(5-nitrothiazol-2-yl)acetamide] | > 90 | 47.2 ± 0.6 | 199 to 201 |  |
| O=C(CSc1nc2ccccc2cc1-c1nc2ccccc2s1)Nc1cccc2ccccc12 [Compound 8p, 2-((3-(benzo[d]thiazol-2-yl)quinolin-2-yl)thio)-N-(naphthalen-1-yl)acetamide] | > 90 | 139.8 ± 1 | 198 to 200 |  |
| O=C(CSc1nc2ccccc2cc1-c1nc2ccccc2s1)NCc1ccccc1 [Compound 8q, 2-((3-(benzo[d]thiazol-2-yl)quinolin-2-yl)thio)-N-benzylacetamide] | > 90 | 255.6 ± 0.3 |  |  |
| Cc1ccc(CNC(=O)CSc2nc3ccccc3cc2-c2nc3ccccc3s2)cc1 [Compound 8r, 2-((3-(benzo[d]thiazol-2-yl)quinolin-2-yl)thio)-N-(4-methylbenzyl)acetamide] | > 90 | 161.4 ± 0.4 | 182 to 184 |  |
| O=C(CSc1nc2ccccc2cc1-c1nc2ccccc2s1)NCc1ccc(F)cc1 [Compound 8s, 2-((3-(benzo[d]thiazol-2-yl)quinolin-2-yl)thio)-N-(4-fluorobenzyl)acetamide] | > 90 | 130.1 ± 0.7 | 213 to 215 | Less activity compared to phenyl one ([2]; α-glucosidase, para-fluoro benzyl less active than para-fluoro phenyl): about threefold |
| O=C(CSc1nc2ccccc2cc1-c1nc2ccccc2s1)NCCc1ccccc1 [Compound 8t, 2-((3-(benzo[d]thiazol-2-yl)quinolin-2-yl)thio)-N-phenethylacetamide] | > 90 | 222.7 ± 0.9 | 225 to 227 |  |
| Cc1cccc(C)c1NC(=O)CSc1nc2ccccc2cc1/C=N/NC(=O)c1ccccc1 [D] |  |  |  | IC50 (α-glucosidase [3]; Fig. 2, study of compound D with its acarbose standard): 14 ± 0.6 µM |
| Oc1ccc(-c2nnc(-c3ccc(-c4nc5ccccc5s4)cc3)o2)cc1O [E] |  |  |  | IC50 (α-glucosidase [3]; Fig. 2, study of compound E with its acarbose standard): 0.5 ± 0.01 µM |
| O=C(N/N=C/c1ccc(Cl)cc1)c1ccc(-c2nc3ccccc3s2)cc1 [F] |  |  |  | IC50 (α-glucosidase [3]; Fig. 2, study of compound F with its acarbose standard): 5.31 ± 0.03 µM |
